Laboratory results published in patent US11679107B2 (Eisai R&D Management Co., Ltd., priority 2018, dated 2023).
Like-named read-outs stand apart in the source and are kept apart here.

Key:
SF3b complexes = molecular target: T1, SF3b complexes (Homo sapiens, UniProt O75533+Q7RTV0); assay: Scintillation proximity assay (SPA) with [3H]-labelled pladienolide probe; type: binding; settings: SF3B1 (WT); geometric mean; read-out: SPA-ATS GMean IC50 (nM) SF3B1 (WT)
T1 construct: endogenous in cells; host or cells: Nuclear extracts; A HeLa S3 extract preparation is described for the in vitro splicing assay
Method in brief: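 SF3b complexes captured from nuclear extracts on anti-SF3B1 antibody SPA beads; test compounds pre-incubated 30 min before 2.5 nM [3H]-pladienolide probe added, then 30 min incubation. Bound probe read by scintillation; values from non-linear regression of concentration–response curves.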

[1] = tested on: NCI-H1568 cells (high MCL1); assay: Cell proliferation and viability, CellTiter-Glo, 72 hours; type: cell-based; settings: for GI50: geometric mean
Method in brief: (§1)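 Cells grown in RPMI-1640 with 10% FBS (Panc line with added insulin and FBS to 15%) were exposed to an 11-point half-log dilution series, typically 10 μM-100 pM, at 0.1% final DMSO. After incubation at 37° C, 5% CO2, ATP content was measured by luminescence and normalized to a time-zero plate and DMSO wells.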

[2] = tested on: Panc 05.04 cells (SF3b K700E mutant); assay: as above; type: cell-based; settings: for GI50: geometric mean
Method in brief: as §1

[3] = tested on: Ad2 variant pre-mRNAs spliced in HeLa S3 nuclear extracts; assay: In vitro splicing assay (IVS), RT-qPCR of spliced product; type: biochemical; settings: for IC50: geometric mean; for Ratio Ad2.1/2.2: ratio of IVS IC50 Ad2.1 to Ad2.2
Method in brief: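 Ad2 variant pre-mRNA (2 ng) with FTZΔi control RNA in HeLa S3 nuclear extract (8 μg) was pre-incubated with compound or DMSO for 15 min at 30 °C. Splicing ran 90 min at 30 °C after adding 0.5 mM ATP, creatine phosphate and MgCl2. Spliced product was quantified by TaqMan RT-qPCR, normalized to DMSO, and curve-fitted.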

[4] = 72 h, NCIH1568.1, -100% = cidal, 0% = static, 100% = uninhibited growth
[5] = NCI-H1568, read-out: CTGlo-ATS GMean GI50 (nM) 72 h NCIH1568.1, 72 h, NCIH1568.1
[6] = 72 h, PANC0504.1, -100% = cidal, 0% = static, 100% = uninhibited growth
[7] = Panc 05.04, read-out: CTGlo-ATS GMean GI50 (nM) 72 h PANC0504.1, 72 h, PANC0504.1
[8] = Ad2.1 pre-mRNA substrate, read-out: qPCR-IVS-ATS GMean IC50 (nM) Ad2.1
[9] = Ad2.2 pre-mRNA substrate, read-out: qPCR-IVS-ATS GMean IC50 (nM) Ad2.2
[10] = NCI-H1568, read-out: CTGlo-ATS GMean GI50 (nM) 72 h NCIH1568.1, NCIH1568.1 cells, 72 h
[11] = NCIH1568.1 cells, 72 h, −100% cidal, 0% static, 100% maximal growth
[12] = PANC0504.1 cells, 72 h, −100% cidal, 0% static, 100% maximal growth
[13] = Panc 05.04, read-out: CTGlo-ATS GMean GI50 (nM) 72 h PANC0504.1, PANC0504.1 cells, 72 h

SMILES | IC50 (SF3b complexes) [nM] | CTGlo-ATS Mean MinResponse % 72 h NCIH1568.1 [1, 4] [%] | GI50 [1, 5] [nM] | CTGlo-ATS Mean MinResponse % 72 h PANC0504.1 [2, 6] [%] | GI50 [2, 7] [nM] | IC50 [3, 8] [nM] | IC50 [3, 9] [nM] | Ratio Ad2.1/2.2 [3] | GI50 [1, 10] [nM] | CTGlo-ATS Mean MinResponse % 72 h NCIH1568.1 [1, 11] [%] | CTGlo-ATS Mean MinResponse % 72 h PANC0504.1 [2, 12] [%] | GI50 [2, 13] [nM] | GI50 ([1]; NCI-H1568, 72 h, read-out: CTGlo-ATS GMean GI50 (nM) 72 h NCIH1568.1, NCIH1568.1 cells, 72 h) [nM] | GI50 ([2]; Panc 05.04, 72 h, read-out: CTGlo-ATS GMean GI50 (nM) 72 h PANC0504.1, PANC0504.1 cells, 72 h) [nM] | GI50 ([1]; NCI-H1568, 72 h, read-out: CTGlo-ATS GMean GI50 (nM) 72 h NCIH1568.1, 72 h, NCIH1568.1) [nM] | GI50 ([2]; Panc 05.04, 72 h, read-out: CTGlo-ATS GMean GI50 (nM) 72 h PANC0504.1, 72 h, PANC0504.1) [nM]
COCC(=O)Nc1cc(F)cc(/C=C(\C)[C@H]2OC(=O)CC(O)CCC(C)[C@@H](OC(=O)N3CCN(C)CC3)/C=C/[C@@H]2C)c1 (stereo in doubt) [Compound 249, [(2S,3S,4E,6R,7R,10S)-2-[(E)-1-[3-fluoro-5-[(2-methoxyacetyl)amino]phenyl]prop-1-en-2-yl]-10-hydroxy-3,7-dimethyl-12-oxo-1-oxacyclododec-4-en-6-yl] 4-methylpiperazine-1-carboxylate] | 5.16 | −49.016 | 14.5 | −93.297 | 13.8 | 6350 | 33.6 | 188.921 | – | – | – | – | – | – | – | –
C/C(=C\c1cc(F)cc(N2CCN(C(=O)c3cnco3)CC2)c1)[C@H]1OC(=O)C[C@H](O)CC[C@H](C)[C@@H](OC(=O)N2CCN(C)CC2)/C=C/[C@@H]1C [Compound 123] | 1.7 | – | – | – | – | 16.5 | 13.1 | – | 2.26 | −86.056 | −71.328 | 2.75 | – | – | – | –
C/C(=C\c1cc(F)cc(N2CCN(CC(F)(F)F)CC2)c1)[C@H]1OC(=O)C[C@H](O)CC[C@H](C)[C@@H](OC(=O)N2CCN(C)CC2)/C=C/[C@@H]1C [Compound 107] | 8.76 | – | – | – | – | 190 | 25.4 | – | 7.27 | −87.564 | −83.679 | 8.46 | – | – | – | –
C/C(=C\c1cc(F)cc(N2CCOCC2=O)c1)[C@H]1OC(=O)C[C@H](O)CC[C@H](C)[C@@H](OC(=O)N2CCN(C)CC2)/C=C/[C@@H]1C [Compound 56] | 1.94 | – | – | – | – | 16.1 | 15.3 | – | 4.42 | −67.625 | −90.320 | 1.85 | – | – | – | –
C/C(=C\c1cccc(S(=O)(=O)N2CCC(O)CC2)c1)[C@H]1OC(=O)C[C@H](O)CC[C@H](C)[C@@H](OC(=O)N2CCN(C)CC2)/C=C/[C@@H]1C [Compound 95] | 2.32 | – | – | – | – | 10.3 | 10 | – | – | −73.174 | −93.120 | – | 2.51 | 2.59 | – | –
CC(=O)N1CCC(n2nnc3c(F)cc(/C=C(\C)[C@H]4OC(=O)C[C@H](O)CC[C@H](C)[C@@H](OC(=O)N5CCN(C)CC5)/C=C/[C@@H]4C)cc32)CC1 [Compound 160] | 1.65 | – | – | – | – | 4.68 | 4.69 | – | 0.896 | −86.403 | −82.399 | 1.15 | – | – | – | –
C/C(=C\c1cccc(N2CCN(CCO)CC2)c1)[C@H]1OC(=O)C[C@H](O)CC[C@H](C)[C@@H](OC(=O)N2CCC(N3CCCCC3)CC2)/C=C/[C@@H]1C [Compound 263, [(2S,3S,4E,6R,7S,10R)-10-hydroxy-2-[(E)-1-[3-[4-(2-hydroxyethyl)piperazin-1-yl]phenyl]prop-1-en-2-yl]-3,7-dimethyl-12-oxo-1-oxacyclododec-4-en-6-yl] 4-piperidin-1-ylpiperidine-1-carboxylate] | 37.7 | −67.601 | 102 | −88.783 | 64.5 | 93.6 | 25.5 | 3.677 | – | – | – | – | – | – | – | –
C/C(=C\c1cc(F)cc(N2CCN(C(=O)Cn3cccn3)CC2)c1)[C@H]1OC(=O)C[C@H](O)CC[C@H](C)[C@@H](OC(=O)N2CCNCC2)/C=C/[C@@H]1C [Compound 235, [(2S,3S,4E,6R,7S,10R)-2-[(E)-1-[3-fluoro-5-[4-(2-pyrazol-1-ylacetyl)piperazin-1-yl]phenyl]prop-1-en-2-yl]-10-hydroxy-3,7-dimethyl-12-oxo-1-oxacyclododec-4-en-6-yl] piperazine-1-carboxylate] | 5.56 | −84.925 | – | −84.459 | – | 16 | 15.1 | 1.057 | – | – | – | – | – | – | 2.35 | 1.94
C/C(=C\c1cc(F)c2cnn(CC(=O)N(C)C)c2c1)[C@H]1OC(=O)C[C@H](O)CC[C@H](C)[C@@H](OC(=O)N2CCN(C)CC2)/C=C/[C@@H]1C [Compound 132] | 4.91 | – | – | – | – | 34.1 | 12.8 | – | 11.5 | −68.423 | −94.673 | 13.6 | – | – | – | –
C/C(=C\c1cc(F)cc(NC(=O)CC2CC2)c1)[C@H]1OC(=O)C[C@H](O)CC[C@H](C)[C@@H](OC(=O)N2CCN(C)CC2)/C=C/[C@@H]1C [Compound 250, [(2S,3S,4E,6R,7S,10R)-2-[(E)-1-[3-[(2-cyclopropylacetyl)amino]-5-fluorophenyl]prop-1-en-2-yl]-10-hydroxy-3,7-dimethyl-12-oxo-1-oxacyclododec-4-en-6-yl] 4-methylpiperazine-1-carboxylate] | 3.63 | −58.677 | 15.6 | −94.381 | 23.1 | 2190 | 44.1 | 49.517 | – | – | – | – | – | – | – | –
C/C(=C\c1cc(Cl)cc(Cl)c1)[C@H]1OC(=O)C[C@H](O)CC[C@H](C)[C@@H](OC(=O)N2CCN(C)CC2)/C=C/[C@@H]1C [Compound 48] | 11.3 | – | – | – | – | > 25000 | 188 | – | 121 | −38.837 | −89.415 | 95.2 | – | – | – | –
C/C(=C\c1cc(F)cc(N2CCOCC2)c1)[C@H]1OC(=O)C[C@H](O)CC[C@H](C)[C@@H](OC(=O)N2CCN(C)[C@H](C)C2)/C=C/[C@@H]1C [Compound 23] | 4.23 | – | – | – | – | 369 | 28.3 | – | 10.8 | −64.974 | −90.781 | 10.4 | – | – | – | –
